Laboratory results from US4055640A, “Compositions and methods for controlling the growth of bacteria, fungi and algae using certain derivatives of N-(2,2-dichlorovinyl)salicylamides” (Nippon Kayaku Co., Ltd., priority 1975, dated 1977).

Tests used:
[1] = system: seedling blight of rice plant (pathogen Fusarium sp. and Rhizoctonia sp.); test: Exterminating test on seedling blight of rice plant (Experimental Example 1); format: in vivo; conditions: 0.25g/box a.i., 5% dust mixed with soil
Protocol: Exterminating test on seedling blight of rice plant Nursery boxes (60 × 30 × 3 cm) were filled with soil which were contaminated with pathogen (Fusarium sp. and Rhizoctonia sp.) The dust in which the present compound was contained in a ratio of 5% by weight was added in the box in a ratio of 5 grams per box and mixed well with soil. Thereafter, seeds of rice plant (variety: Nihonbare) were sowed in drills at a rate of 0.3 liter per box and grown up in a lighting chamber at 17° C. After 7 days from the sowing, the boxes were carried out in the field. Furthermore, 10 days thereafter the observations were made. Four percent (4%) dust of 3-hydroxy-5-methyl isoxazol (hereinafter referred to as hydroxyisoxazol) on the market was used as a control and tested by the same method. The test results are shown in Table 2 with a "percentage of healthy seedlings". The percentage of healthy seedlings was calculated as follows: […]

[2] = system: Rhizoctonia solani (damping-off of cucumber); test: Exterminating test on damping-off of cucumber (Experimental Example 3); format: in vivo; conditions: 1,000 ppm, soil drench 50 ml per pot, 10 days
Protocol: Exterminating test on damping-off of cucumber
The pots (diameter, 12 cm) were filled with field soil and then soil infected by adding Rhizoctonia solani in an amount of 5 grams per pot uniformly into the pots. Thereafter, 10 seeds of cucumber (variety: Azumamidori) were sown in each pot.
Eighty percent (80%) wettable powder of the present invention was diluted with water to obtain a suspension and each pot was drenched with the suspension in an amount of 50 milliliters. Then, the pots were transferred to the greenhouse. Fifty percent (50%) wettable powder of pentachloronitro benzene (hereinafter referred to as PCNB) on the market was used as a control and tested by the same method. After 10 days of the inoculation, degrees attacked by the pathogen were observed and a "Percentage of healthy seedlings" was calculated. The "Percentage of healthy seedlings" was calculated as follows: [formula]

[3] = system: Fusarium wilt of cucumber; test: Exterminating test on Fusarium wilt of cucumber (Experimental Example 4); format: in vivo, Fusarium oxysporum f, cucumerinum; conditions: 500 ppm, soil drench 100 ml per pot, two weeks
Protocol: Exterminating test on Fusarium wilt of cucumber Twenty (20) grams of infected soil was added uniformly into each pot which was filled with steam sterilized field soil, then 18 seeds of cucumber (variety; Tokiwazibai) were sowed in each pot. Eighty percent (80%) wettable powder of the present invention was diluted with water to obtain a suspension, and each pot was drenched with the suspension in an amount of 100 ml. Fifty percent (50%) wettable powder of methyl-1-(butylcarbamoyl) 2-benzimidazol carbamate (hereinafter referred to as Benlate) on the market was used as a control and tested by the same method. After two weeks of planting, degrees attacked by the pathogen was observed and a "percentage of healthy seedlings" was calculated as follows: [formula]

Bacillus subtilis [4] = test: Minimum inhibitory amount, dilution methods (Example 24); format: cell-based; conditions: (2) glucose bouillon medium dilution method
Text: (§1) Bactericidal activity and fungicidal activity of the active compounds of the present invention were examined by potato-dextrose agar dilution method, or [2] glucose bouillon medium dilution method. The results are shown in Table 10 below as the minimum inhibitory concentration (the minimum concentration of active compound found to produce 100% control of the test bacteria and fungi).

Escherichia coli [5] = test: as above; format: cell-based; conditions: (2) glucose bouillon medium dilution method
Text: as §1

Penicillium Citrinum [6] = test: as above; format: cell-based; conditions: (1) potato-dextrose agar dilution method
Text: as §1

Staphylococcus aureus [7] = test: as above; format: cell-based; conditions: (2) glucose bouillon medium dilution method
Text: as §1

Cladosporium harbarum [8] = test: as above; format: cell-based; conditions: (1) potato-dextrose agar dilution method
Text: as §1

Aspergillus niger [9] = test: as above; format: cell-based; conditions: (1) potato-dextrose agar dilution method
Text: as §1

[10] = system: Xanthomonas citri (citrus canker); test: Exterminating test on citrus canker (Experimental Example 6); format: in vivo; conditions: 1,000 ppm, 2 weeks after inoculation
Protocol: (§2) Exterminating test on citrus canker. 4-year-old summer orange seedlings, planted in unglazed pots having a diameter of 20 cm, were employed in this test. Eighty percent (80%) wettable powder of the present invention was diluted with water, and sprayed over the seedlings in an amount of 50 ml per pot. The leaves of the seedlings were inoculated Xanthomonas citri by means of a needle. After the inoculation, the seedlings were maintained in a moist chamber at 25° C for 24 hours. Then the pots were transferred into the greenhouse. Streptomycin 20% wettable powder was used as a control, and tested by the same method. After 2 weeks after the inoculation, degrees of disease attack were observed, and an "Effect Index" was calculated as follows: [formula]

summer orange seedlings = test: Phytotoxicity on summer orange seedlings (Experimental Example 6); format: in vivo; conditions: 1,000 ppm
Protocol: as §2

[11] = system: Aspergillus niger, Penicillium citrinum, Cladosporium harbarum and chaetomium globosum; test: Degree of growth inhibition of fungi on treated beach plates (Example 25); format: cell-based; parameters: scale not given here; conditions: numerical rating, 2 weeks
Protocol: The emulsifiable concentrates which were prepared by Example 20 were diluted with water 400 times and 800 times to form emulsions.
(§3) The square plates of beach of which a side was 5 cm long and thickness was 5 mm were dipped into the emulsion for 2 minutes and dried for 24 hours at room temperature.
(§4) The square plates were placed on the surface of agar plates. The suspensions which contained spores of Aspergillus niger, Penicillium citrinum, Cladosporium harbarum and chaetomium globosum were respectively sprayed on the agar plates and the square plates.
The test fungi were cultivated in the incubator at the humidity of 95% and the temperature of 28° C for 2 weeks. The degree of growth inhibition is defined in terms of the following numerical ratings.

Bacillus subtilis [12] = test: Minimum inhibitory concentration, dilution methods (Example 14); format: cell-based; conditions: (3) glucose bouillon medium dilution method
Text: as §1, with “Bacteriocidal activity” for “Bactericidal activity”, “method, [2] waxman's liquid medium dilution method” for “method,”, “or [3]” for “or [2]”, “Table 4” for “Table 10”

Escherichia coli [13] = test: as above; format: cell-based; conditions: (3) glucose bouillon medium dilution method
Text: as §1, with “Bacteriocidal activity” for “Bactericidal activity”, “method, [2] waxman's liquid medium dilution method” for “method,”, “or [3]” for “or [2]”, “Table 4” for “Table 10”

Penicillium Citrinum [14] = test: as above; format: cell-based; conditions: (1) potato-dextrose agar dilution method
Text: as §1, with “Bacteriocidal activity” for “Bactericidal activity”, “method, [2] waxman's liquid medium dilution method” for “method,”, “or [3]” for “or [2]”, “Table 4” for “Table 10”

Staphylococcus aureus [15] = test: as above; format: cell-based; conditions: (3) glucose bouillon medium dilution method
Text: as §1, with “Bacteriocidal activity” for “Bactericidal activity”, “method, [2] waxman's liquid medium dilution method” for “method,”, “or [3]” for “or [2]”, “Table 4” for “Table 10”

Cladosporium harbarum [16] = test: as above; format: cell-based; conditions: (1) potato-dextrose agar dilution method
Text: as §1, with “Bacteriocidal activity” for “Bactericidal activity”, “method, [2] waxman's liquid medium dilution method” for “method,”, “or [3]” for “or [2]”, “Table 4” for “Table 10”

Aspergillus niger [17] = test: as above; format: cell-based; conditions: (1) potato-dextrose agar dilution method
Text: as §1, with “Bacteriocidal activity” for “Bactericidal activity”, “method, [2] waxman's liquid medium dilution method” for “method,”, “or [3]” for “or [2]”, “Table 4” for “Table 10”

[18] = system: Aspergillus niger, Penicillium citrinum, Cladosporium harbarum and chaetomium globosum; test: Degree of growth inhibition of fungi on treated beach plates (Example 17); format: cell-based; parameters: scale not given here; conditions: numerical rating, 2 weeks
Protocol: The emulsifiable concentrates which were prepared by Example 10 were diluted with water 400 times and 800 times to form emulsions.
as §3, §4
The test fungi were cultivated in the incubator at the humidity of 95% and the temperature of 28° C for 2 weeks.
The degree of growth inhibition is defined in terms of the following numerical ratings.

[19] = system: Cladosporium cucumerinum (cucumber scab); test: Exterminating test on cucumber scab (Experimental Example 2); format: in vivo; parameters: scale not given here; conditions: 500 ppm, 5 days after inoculation
Protocol: Exterminating test on cucumber scab
(§5) The cucumber seeds (variety: Sagamihanjiro) were sown in pots (diameter 18 cm). Eighty percent (80%) wettable powder (contents of active compound: 80%) of the present invention was diluted with water to obtain a suspension. The suspension was sprayed over the cucumber seedlings of the stage of 3-4 leaves in an amount of 20 ml per pot. After 24 hours, these pots were inoculated by means of spray of spore suspension of Cladosporium cucumerinum. The thus-inoculated seedlings were placed in a moist chamber at 20° C for 24 hours. The pots were continuously kept in a greenhouse at 20° C. The following wettable powders on the market were used as controls.
70% wettable powder of 1,2-bis (3-methoxy carbonyl-2-thioureid) benzene (hereinafter referred to as "thiophanate methyl") on the market.
75% wettable powder of ethylene bis (dithiocarbamic acid) manganese (hereinafter referred to as "maneb") on the market. After 5 days of the inoculation, degrees attached by the pathogen were observed and the results were shown in Table 3 with an "Infected Index". The "Infected Index" was calculated as follows: [formula] A : Number of leaves which were killed by hard attack B : Number of leaves severely attacked
C : number of leaves slightly attacked
D : number of healthy leaves

green algae = test: Degree of propagation on slime test boards (Example 27); format: cell-based; conditions: same method, shaking culture for 2 days
Protocol: Zero point zero two (0.02) part of active compounds in the form of 10% water soluble concentrate which was prepared by Example 23 was added into 100 parts of Waxman's liquid medium. Peices of Wood iron (hereafter referred to as the slime test boards) were soaked into the Waxman's liquid medium. The bacteria which were gathered from circular water system were inoculated upon the Waxman's liquid medium and incubated at 27°-34° C by shaking culture for 2 days. The degree of propagation of the bacteria on the slime test boards was examined.
Thegrowth-inhibiting activity of active compounds against the fungi and the green algae was also examined by the same method as mentioned above.
The degree of propagation of the bacteria, fungi or green algae on the test boards is defined in terms of the following symbols.

Staphylococcus oureus = test: Region of growth-inhibition around treated cotton cloth (Example 26); format: cell-based; conditions: emulsifiable concentrate diluted 100 times
Protocol: (§6) The emulsifiable concentrates which were prepared by Example 20 were diluted with water 100 times to form an emulsion. A cloth of cotton was soaked into each emulsion for 2 minutes. The clothes were dried at room temperature and cut into a square of which a side was 1 cm long. Each kind of test bacteria and fungi was inoculated, separately, on plates of potato-agar and one square cloth placed on each of such plates. Test bacteria and fungi were cultivated at 28° C for 4 days. The width of the region of growth-inhibition which was formed a circumference of the cloth was measured.

Bacillus subtilis [20] = test: as above; format: cell-based; conditions: emulsifiable concentrate diluted 100 times
Protocol: as §6

Penicillium Citrinum [21] = test: as above; format: cell-based; conditions: emulsifiable concentrate diluted 100 times
Protocol: as §6

Aspergillus niger [22] = test: as above; format: cell-based; conditions: emulsifiable concentrate diluted 100 times
Protocol: as §6

[23] = system: cucumber seedlings (variety: Sagamihanjiro); test: Phytotoxicity on cucumber seedlings (Experimental Example 2); format: in vivo; conditions: 500 ppm
Protocol: as §5

Compound | Percentage of healthy seedlings [2] | Percentage of healthy seedlings [3] | Minimum inhibitory amount (Bacillus subtilis [4]) | Minimum inhibitory amount (Escherichia coli [5]) | Minimum inhibitory amount (Penicillium Citrinum [6]) | Minimum inhibitory amount (Staphylococcus aureus [7]) | Minimum inhibitory amount (Cladosporium harbarum [8]) | Minimum inhibitory amount (Aspergillus niger [9]) | Effect Index [10] | Phytotoxicity (summer orange seedlings) | Degree of growth inhibition ([11]; 0.0125 %) | Degree of growth inhibition ([11]; 0.025 %) | other results
O=C(NC=C(Cl)Cl)c1cc(Br)ccc1[O-].O=C(NC=C(Cl)Cl)c1cc(Br)ccc1[O-].[Mn+2] [compound 29] | 55% | 57.5% | 5 µg/mL | 60 µg/mL | 20 µg/mL | 10 µg/mL | 10 µg/mL | 20 µg/mL | 56.2 | Nil | 2 | 3 | Percentage of healthy seedlings [1]: 69.8%
O=C(NC=C(Cl)Cl)c1ccccc1[O-].O=C(NC=C(Cl)Cl)c1ccccc1[O-].[Cu+2] [compound 26] | 100% | 58.0% |  |  |  |  |  |  | 47.5 | Nil |  |  | minimum inhibitory concentration (Bacillus subtilis [12]): 5 mc g/ml; minimum inhibitory concentration (Escherichia coli [13]): 60 mc g/ml; minimum inhibitory concentration (Penicillium Citrinum [14]): 10 mc g/ml; minimum inhibitory concentration (Staphylococcus aureus [15]): 5 mc g/ml; minimum inhibitory concentration (Cladosporium harbarum [16]): 5 mc g/ml; minimum inhibitory concentration (Aspergillus niger [17]): 10 mc g/ml; Degree of growth inhibition ([18]; 0.0125 %): 3; Degree of growth inhibition ([18]; 0.025 %): 3
O=C(NC=C(Cl)Cl)c1cc(Br)ccc1[O-].O=C(NC=C(Cl)Cl)c1cc(Br)ccc1[O-].[Zn+2] [compound 25] | 80% | 49.5% | 5 µg/mL | 60 µg/mL | 20 µg/mL | 5 µg/mL | 10 µg/mL | 20 µg/mL | 80.6 | Nil | 2 | 3 | Infected Index [19]: 12.1; Degree of propagation (green algae): + (the area of propagation is 1-25% on the slime test boards.); width of the region of growth-inhibition (Staphylococcus oureus): 6 mm; width of the region of growth-inhibition (Bacillus subtilis [20]): 6 mm; width of the region of growth-inhibition (Penicillium Citrinum [21]): 5 mm; width of the region of growth-inhibition (Aspergillus niger [22]): 6 mm; Phytotoxicity [23]: Nil
